The record followed here is patent publication US8471005B2 (Cephalon, Inc., priority 2008, dated 2013).

In one experiment the target is T1, ALK (Homo sapiens, UniProt Q9UM73).
T1 construct: host or cells: baculovirus expression system
Put plainly: ALK Kinase Assay (ELISA/TRF, PLC-γ substrate). Type of experiment: biochemical. Conditions: read-out: ALK Potency. Summed up: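 PLC-γ substrate coated at 10 μg/mL in TBS; reaction started with 30 ng/ml ALK, run 15 min at 37° C. Phosphoproduct detected by TRF with Eu-N1-labeled PT66 anti-phosphotyrosine antibody. IC50 from sigmoidal variable-slope fit of percent inhibition versus log concentration.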
(In an ELISA, binding on a coated surface is turned into a signal by an enzyme label.)

For another experiment, the target named is T2, JAK2 (Homo sapiens, UniProt O60674).
T2 construct: host or cells: baculovirus expression system
T2 sequence (O60674 whole entry): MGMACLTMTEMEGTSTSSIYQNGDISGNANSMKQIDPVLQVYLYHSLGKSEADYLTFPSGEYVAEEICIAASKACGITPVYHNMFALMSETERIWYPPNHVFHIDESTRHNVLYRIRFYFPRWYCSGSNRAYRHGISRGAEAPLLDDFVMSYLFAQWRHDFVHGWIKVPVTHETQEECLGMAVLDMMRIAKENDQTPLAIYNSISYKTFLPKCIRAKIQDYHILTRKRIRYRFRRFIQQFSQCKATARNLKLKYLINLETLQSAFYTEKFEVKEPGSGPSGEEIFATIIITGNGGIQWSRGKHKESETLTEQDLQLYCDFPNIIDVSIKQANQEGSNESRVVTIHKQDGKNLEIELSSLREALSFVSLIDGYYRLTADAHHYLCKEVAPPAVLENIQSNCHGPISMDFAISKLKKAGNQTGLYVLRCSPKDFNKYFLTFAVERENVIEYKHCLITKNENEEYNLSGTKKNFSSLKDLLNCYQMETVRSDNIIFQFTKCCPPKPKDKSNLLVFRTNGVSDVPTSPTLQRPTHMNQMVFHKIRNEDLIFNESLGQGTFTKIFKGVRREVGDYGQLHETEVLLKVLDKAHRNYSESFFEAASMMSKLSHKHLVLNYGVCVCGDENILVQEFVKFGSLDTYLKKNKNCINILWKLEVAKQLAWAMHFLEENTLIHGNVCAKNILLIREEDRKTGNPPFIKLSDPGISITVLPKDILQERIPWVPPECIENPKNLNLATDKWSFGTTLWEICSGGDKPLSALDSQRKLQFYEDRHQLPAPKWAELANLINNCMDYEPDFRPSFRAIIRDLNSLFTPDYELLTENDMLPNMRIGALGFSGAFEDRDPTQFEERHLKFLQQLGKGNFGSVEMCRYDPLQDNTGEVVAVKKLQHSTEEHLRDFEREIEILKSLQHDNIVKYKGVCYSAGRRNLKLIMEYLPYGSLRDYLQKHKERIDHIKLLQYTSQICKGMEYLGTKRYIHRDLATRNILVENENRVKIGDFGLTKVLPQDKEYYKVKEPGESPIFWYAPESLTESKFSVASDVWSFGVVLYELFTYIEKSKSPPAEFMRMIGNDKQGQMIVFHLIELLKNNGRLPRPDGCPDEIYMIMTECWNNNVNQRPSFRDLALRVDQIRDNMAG
As to the kind of experiment: Recombinant Human JAK2 Kinase Assay (TRF). Type of experiment: biochemical. To be noted: read-out: JAK2 Potency. An outline of the steps:
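TRF read-out: Eu-N1 PY100 anti-phosphotyrosine antibody detects product. Enzyme is baculovirus-expressed JAK2 at 15 ng/ml; substrate is a biotinyl 15-mer peptide bound to Neutravidin-coated wells. Buffer 20 mM HEPES pH 7.2, 0.2 μM ATP, 1 mM MnCl2, 0.1% BSA, 2.5% DMSO final; 20 min, RT.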

The mark [1] stands for this setting: ALK kinase inhibition, 1 μM ATP.
The mark [2] stands for this setting: JAK2 kinase inhibition, 0.2 μM ATP.

Like-named read-outs stand apart in the source and are kept apart here.

T1 sequence (Q9UM73 19-1620): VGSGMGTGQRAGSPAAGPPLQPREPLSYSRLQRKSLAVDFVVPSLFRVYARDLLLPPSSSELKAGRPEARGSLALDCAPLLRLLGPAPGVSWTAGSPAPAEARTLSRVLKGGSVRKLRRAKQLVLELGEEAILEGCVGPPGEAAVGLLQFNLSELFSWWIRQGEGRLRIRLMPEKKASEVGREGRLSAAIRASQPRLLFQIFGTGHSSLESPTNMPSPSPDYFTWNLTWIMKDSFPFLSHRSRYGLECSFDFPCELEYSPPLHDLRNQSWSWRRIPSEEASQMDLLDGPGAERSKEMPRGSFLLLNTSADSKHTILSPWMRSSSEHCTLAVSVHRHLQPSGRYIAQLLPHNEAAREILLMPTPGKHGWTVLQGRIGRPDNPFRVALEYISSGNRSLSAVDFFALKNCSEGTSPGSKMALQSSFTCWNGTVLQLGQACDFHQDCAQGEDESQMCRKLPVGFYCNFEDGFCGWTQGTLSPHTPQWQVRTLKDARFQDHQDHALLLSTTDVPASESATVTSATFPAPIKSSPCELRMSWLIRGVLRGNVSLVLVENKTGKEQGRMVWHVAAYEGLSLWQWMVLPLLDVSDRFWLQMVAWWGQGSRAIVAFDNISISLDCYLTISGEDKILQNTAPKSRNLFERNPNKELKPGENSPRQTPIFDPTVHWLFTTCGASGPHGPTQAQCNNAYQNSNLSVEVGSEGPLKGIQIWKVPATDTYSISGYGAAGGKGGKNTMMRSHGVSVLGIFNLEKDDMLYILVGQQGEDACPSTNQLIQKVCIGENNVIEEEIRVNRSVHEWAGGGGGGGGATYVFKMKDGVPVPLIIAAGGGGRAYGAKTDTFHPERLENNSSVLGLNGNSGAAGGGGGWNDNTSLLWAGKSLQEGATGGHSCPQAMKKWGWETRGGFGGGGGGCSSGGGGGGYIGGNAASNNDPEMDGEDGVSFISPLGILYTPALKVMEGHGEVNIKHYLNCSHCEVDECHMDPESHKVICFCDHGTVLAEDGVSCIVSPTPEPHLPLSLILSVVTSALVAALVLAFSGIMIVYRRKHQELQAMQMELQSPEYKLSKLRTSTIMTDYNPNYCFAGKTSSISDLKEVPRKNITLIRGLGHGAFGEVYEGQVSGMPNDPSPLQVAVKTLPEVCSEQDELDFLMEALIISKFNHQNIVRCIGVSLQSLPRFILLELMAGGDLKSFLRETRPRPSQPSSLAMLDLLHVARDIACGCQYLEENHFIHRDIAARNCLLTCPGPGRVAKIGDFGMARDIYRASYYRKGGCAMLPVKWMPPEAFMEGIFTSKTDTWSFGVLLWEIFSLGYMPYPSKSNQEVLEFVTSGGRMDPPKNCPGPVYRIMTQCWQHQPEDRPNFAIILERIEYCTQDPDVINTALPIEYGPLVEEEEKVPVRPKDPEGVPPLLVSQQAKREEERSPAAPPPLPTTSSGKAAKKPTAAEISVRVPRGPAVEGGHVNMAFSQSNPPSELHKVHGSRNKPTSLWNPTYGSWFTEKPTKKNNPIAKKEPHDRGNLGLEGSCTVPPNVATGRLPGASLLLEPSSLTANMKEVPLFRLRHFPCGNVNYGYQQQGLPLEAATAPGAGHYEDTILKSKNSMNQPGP

`CC(C)(C)NS(=O)(=O)c1cccc(-c2ccc3cnc(Nc4ccc5c(c4)CS(=O)(=O)C5)nn23)c1` [Example 663, N-tert-Butyl-3-[2-(2,2-dioxo-2,3-dihydro-1H-2$1(6)-benzo[c]thiophen-5-ylamino)-pyrrolo[2,1-f][1,2,4]triazin-7-yl]-benzenesulfonamide]: the IC50 at ALK (setting [1]) is 0.1 to 1 µM; at JAK2 (setting [2]), below 0.1 µM.
As for `CC(=O)N1CCOc2ccc(Nc3ncc4ccc(-c5ccccc5N(C)S(C)(=O)=O)n4n3)cc21` [Example 1374, N-{2-[2-(4-Acetyl-3,4-dihydro-2H-1,4-benzoxazin-6-ylamino)-pyrrolo[2,1-f][1,2,4]triazin-7-yl]-phenyl}-N-methyl-methanesulfonamide], the IC50 is 0.1 to 1 µM on ALK (ALK Kinase Inhibition) and below 0.1 µM at JAK2 (JAK2 Kinase Inhibition).
As to `CS(=O)(=O)c1ccc(-c2ccc3cnc(Nc4ccc5c(c4)CCC(N4CCOCC4)CC5)nn23)cc1` (stereo not shown) [Example 612, [7-(4-Methanesulfonyl-phenyl)-pyrrolo[2,1-f][1,2,4]triazin-2-yl]-(7-morpholin-4-yl-6,7,8,9-tetrahydro-5H-benzocyclohepten-2-yl)-amine], the IC50 on ALK (setting [1]) is 0.1 to 1 µM; on JAK2 (setting [2]), below 0.1 µM.
Take `COc1cc(N2CCN(C)CC2)ccc1Nc1ncc2ccc(-c3cc(S(=O)(=O)N(C)C)ccc3C)n2n1` [Example 75, 3-{2-[2-Methoxy-4-(4-methyl-piperazin-1-yl)-phenylamino]-pyrrolo[2,1-f][1,2,4]triazin-7-yl}-4,N,N-trimethyl-benzenesulfonamide]: the IC50 at ALK (ALK Kinase Inhibition) and on JAK2 (JAK2 Kinase Inhibition) was 0.1 to 1 µM in each case.
On to `CN(c1ccccc1-c1ccc2cnc(Nc3cnn(C4CCNCC4)c3)nn12)S(C)(=O)=O` [Example 717, N-Methyl-N-{2-[2-(1-piperidin-4-yl-1H-pyrazol-4-ylamino)-pyrrolo[2,1-f][1,2,4]triazin-7-yl]-phenyl}-methanesulfonamide], for which the IC50 at ALK (setting [1]) was 0.1 to 1 µM; on JAK2 (setting [2]) it was below 0.1 µM.
On the same counts, the results for `CN(c1ccccc1-c1ccc2cnc(Nc3cccnc3)nn12)S(C)(=O)=O` [Example 1361, N-Methyl-N-{2-[2-(pyridin-3-ylamino)-pyrrolo[2,1-f][1,2,4]triazin-7-yl]-phenyl}-methanesulfonamide] are 1 to 10 µM and below 0.1 µM.
In the same order, the values of `COc1cc(C2CCN(CC(N)=O)C2)ccc1Nc1ncc2ccc(-c3ccccc3N(C)S(C)(=O)=O)n2n1` (racemic) [Example 837, (±)-2-[3-(4-{7-[2-(Methanesulfonyl-methyl-amino)-phenyl]-pyrrolo[2,1-f][1,2,4]triazin-2-ylamino}-3-methoxy-phenyl)-pyrrolidin-1-yl]-acetamide] are below 0.1 µM and 0.1 to 1 µM.
On the same counts, the results for `CCNC(=O)Nc1cccc(Nc2ncc3ccc(-c4ccc(OC)nc4)n3n2)c1` [Example 901, 1-Ethyl-3-{3-[7-(6-methoxy-pyridin-3-yl)-pyrrolo[2,1-f][1,2,4]triazin-2-ylamino]-phenyl}-urea] are above 10 µM and below 0.1 µM.
Regarding `N#Cc1ccccc1-c1ccc2cnc(Nc3ccc(C4CCN(CC(N)=O)CC4)cc3)nn12` [Example 513, 2-(4-{4-[7-(2-Cyano-phenyl)-pyrrolo[2,1-f][1,2,4]triazin-2-ylamino]-phenyl}-piperidin-1-yl)-acetamide], the IC50 on ALK (setting [1]) and on JAK2 (setting [2]) was below 0.1 µM throughout.
In the case of `CN1CCN(CCn2cc(Nc3ncc4ccc(-c5ccccc5N(C)S(C)(=O)=O)n4n3)cn2)CC1` [Example 1212, N-Methyl-N-[2-(2-{1-[2-(4-methyl-piperazin-1-yl)-ethyl]-1H-pyrazol-4-ylamino}-pyrrolo[2,1-f][1,2,4]triazin-7-yl)-phenyl]-methanesulfonamide], the IC50 is 0.1 to 1 µM at ALK (setting [1]) and below 0.1 µM on JAK2 (setting [2]).
On the same counts, the results for `COc1cc(N2CCCN(C3CCN(C)CC3)CC2)ccc1Nc1ncc2ccc(-c3ccccc3N(C)S(C)(=O)=O)n2n1` [Example 790, N-[2-(2-{2-Methoxy-4-[4-(1-methyl-piperidin-4-yl)-[1,4]diazepan-1-yl]-phenylamino}-pyrrolo[2,1-f][1,2,4]triazin-7-yl)-phenyl]-N-methyl-methanesulfonamide] are below 0.1 µM and 0.1 to 1 µM.
In the same order, the values of `CN1CCN(c2ccc(Nc3ncc4ccc(-c5cccc6c5OCCO6)n4n3)cc2)CC1` [Example 548, [7-(2,3-Dihydro-1,4-benzodioxin-5-yl)-pyrrolo[2,1-f][1,2,4]triazin-2-yl]-[4-(4-methyl-piperazin-1-yl)-phenyl]-amine] are below 0.1 µM and below 0.1 µM.
As to `COc1ccccc1-c1ccc2cnc(Nc3ccc4ncn(CCN5CCOCC5)c4c3)nn12` [Example 1349, [7-(2-Methoxy-phenyl)-pyrrolo[2,1-f][1,2,4]triazin-2-yl]-[3-(2-morpholin-4-yl-ethyl)-3H-benzimidazol-5-yl]-amine], the IC50 is 0.1 to 1 µM at ALK (setting [1]) and below 0.1 µM on JAK2 (setting [2]).
In the case of `FC(F)(F)c1ccc(Cl)c(-c2ccc3cnc(Nc4ccc(N5CCOCC5)cc4)nn23)c1` [Example 70, [7-(2-Chloro-5-trifluoromethyl-phenyl)-pyrrolo[2,1-f][1,2,4]triazin-2-yl]-(4-morpholin-4-yl-phenyl)-amine], the IC50 on ALK (ALK Kinase Inhibition) is 1 to 10 µM; on JAK2 (JAK2 Kinase Inhibition) it was below 0.1 µM.
On the same counts, the results for `COc1cc(N2CCCC(N3CC(C)OC(C)C3)C2)ccc1Nc1ncc2ccc(-c3ccccc3OC)n2n1` (stereo not shown) [Example 1445, {4-[3-(2,6-Dimethyl-morpholin-4-yl)-piperidin-1-yl]-2-methoxy-phenyl}-[7-(2-methoxy-phenyl)-pyrrolo[2,1-f][1,2,4]triazin-2-yl]-amine] are below 0.1 µM and 0.1 to 1 µM.
On to `CS(=O)(=O)c1cccc(-c2ccc3cnc(Nc4ccc(C5CCNCC5)nc4)nn23)c1` [Example 1025, (1′,2′,3′,4′,5′,6′-Hexahydro-[2,4′]bipyridinyl-5-yl)-[7-(3-methanesulfonyl-phenyl)-pyrrolo[2,1-f][1,2,4]triazin-2-yl]-amine], for which the IC50 is 0.1 to 1 µM on ALK (setting [1]) and below 0.1 µM on JAK2 (setting [2]).
In the same order, the values of `CN1CCN(c2ccc(Nc3ncc4ccc(-c5ccc(N)nc5)n4n3)cc2)CC1` [Example 1118, [7-(6-Amino-pyridin-3-yl)-pyrrolo[2,1-f][1,2,4]triazin-2-yl]-[4-(4-methyl-piperazin-1-yl)-phenyl]-amine] are 0.1 to 1 µM and below 0.1 µM.
On the same counts, the results for `CCN1CCN(C(=O)c2ccc(Nc3ncc4c(-c5ccccc5OC)ccn4n3)cc2)CC1` [Example 723, (4-Ethyl-piperazin-1-yl)-{4-[5-(2-methoxy-phenyl)-pyrrolo[2,1-f][1,2,4]triazin-2-ylamino]-phenyl}-methanone] are above 10 µM and 0.1 to 1 µM.
As for `COc1ccc(Cl)cc1-c1ccc2cnc(Nc3ccc(N4CCC(N5CCN(C)CC5)CC4)cc3)nn12` [Example 311, [7-(5-Chloro-2-methoxy-phenyl)-pyrrolo[2,1-f][1,2,4]triazin-2-yl]-{4-[4-(4-methyl-piperazin-1-yl)-piperidin-1-yl]-phenyl}-amine], the IC50 on ALK (ALK Kinase Inhibition) and on JAK2 (JAK2 Kinase Inhibition) was below 0.1 µM in each case.
For `CCS(=O)(=O)c1cccc(-c2ccc3cnc(Nc4ccc5ncn(C)c5c4)nn23)c1` [Example 1312, [7-(3-Ethanesulfonyl-phenyl)-pyrrolo[2,1-f][1,2,4]triazin-2-yl]-(3-methyl-3H-benzimidazol-5-yl)-amine], the IC50 on ALK (setting [1]) was 1 to 10 µM; at JAK2 (setting [2]) it was below 0.1 µM.
